In patent US10669238B2, “Irreversible bruton's tyrosine kinase inhibitor” (HEFEI INSTITUTES OF PHYSICAL SCIENCE, CHINESE ACADEMY OF …, priority 2016, dated 2020):

What was measured:
[1] = test system: acute myelocytic leukemia cell strains HL-60; assay: Cell proliferation (Cell Titer-Glo), HL60; type: cell-based; conditions: Homo sapiens, HL60, 72 hours, read-out: Effects on cell proliferation (GI50)
Protocol: (§1) The selectivity of Compound 1 in inhibiting the proliferation of cancer cells was further evaluated by testing the effect of Btk inhibitors on the growth of cancer cells. […]
(§2) In this example different concentrations (0.000508 μM, 0.00152 μM, 0.00457 μM, 0.0137 μM, 0.0411 μM, 0.123 μM, 0.370 μM, 1.11 μM, 3.33 μM, 10 μM) of Compound 1 and Compound 6 were respectively added into the above cells which were then cultured for 72 hours. The number of viable cells was determined via quantitative determination of ATP in living cells by using Cell Titer-Glo® (Promega, the USA) Chemical Luminescent Cell Viability Assay kit.

BTK WT = BTK WT (Homo sapiens, UniProt Q06187); assay: Btk cell-free kinase assay, BTK WT protein; type: biochemical; conditions: compound 30 mins at room temperature, then 100 μM ATP 20 min at 37° C.
Text: (§3) The BTK wild-type plasmid and the BTK mutant plasmid (C481S) were respectively transfected into SF9 cells (purchased from invitrogen), and after three generations of virus amplification, the P3-generation virus was used to transfect SF9 cells which were collected after 72-hour culture to obtain protein BTK WT and protein BTK C481S, which were then purified.

[2] = test system: diffuse large B-cell lymphoma cell lines Pfeiffer; assay: Cell proliferation (Cell Titer-Glo), Pfeiffer; type: cell-based; conditions: Homo sapiens, 72 hours, read-out: Effects on cell proliferation (GI50)
Protocol: as §1, §2

BTK C481S = biological target: T1, BTK C481S (Homo sapiens, UniProt Q06187, C481S); assay: Btk cell-free kinase assay, BTK C481S mutant protein; type: biochemical; conditions: compound 30 mins at room temperature, then 100 μM ATP 20 min at 37° C.
T1 construct: made in house; host or cells: SF9 insect cells
Text: as §3

[3] = test system: acute myeloid leukemia cell lines MV4-11; assay: Cell proliferation (Cell Titer-Glo), MV4-11; type: cell-based; conditions: Homo sapiens; MV4-11, 72 hours; read-out: Effects on cell proliferation (GI50)
Protocol: as §1, §2

[4] = test system: MDS-RAEB cell lines SKM-1; assay: Cell proliferation (Cell Titer-Glo), SKM-1; type: cell-based; conditions: Homo sapiens; SKM-1, 72 hours; read-out: Effects on cell proliferation (GI50)
Protocol: as §1, §2

[5] = test system: acute myeloid leukemia cell lines M-07e; assay: Cell proliferation (Cell Titer-Glo), M-07e; type: cell-based; conditions: 72 hours, read-out: Effects on cell proliferation (GI50)
Protocol: as §1, §2

[6] = test system: B-cell lymphoma cells U2932; assay: Cell proliferation (Cell Titer-Glo), U2932; type: cell-based; conditions: Homo sapiens; U2932, 72 hours; read-out: Effects on cell proliferation (GI50)
Protocol: as §1, §2

mouse pro-B cells BaF3 = assay: Cell proliferation (Cell Titer-Glo), WT-BaF3; type: cell-based; conditions: WT-BaF3, 72 hours, read-out: Effects on cell proliferation (GI50)
Protocol: as §1, §2

leukemic cells K562 = assay: Cell proliferation (Cell Titer-Glo), K562; type: cell-based; conditions: Homo sapiens; K562, 72 hours; read-out: Effects on cell proliferation (GI50)
Protocol: as §1, §2

[7] = biological target: T2, TEL-EGFR/T790-BaF3 cells (stably expressing TEL-EGFR-C797S point mutation kinase) (Homo sapiens, UniProt P00533, C797S); assay: Cell proliferation (Cell Titer-Glo), BaF3-tel-EGFR-C797S; type: cell-based; conditions: BaF3-tel-EGFR-C797S (mouse BaF3 cells), 72 hours; read-out: Effects on cell proliferation (GI50)
T2 construct: expressed in transfected cells; host or cells: mouse BaF3 cells, retroviral MSCV-Puro
Protocol: as §1, §2

[8] = biological target: T3, TEL-EGFR-BaF3 (stably expressing TEL-EGFR activated kinase) (Homo sapiens, UniProt P00533); assay: Cell proliferation (Cell Titer-Glo), BaF3-tel-EGFR; type: cell-based; conditions: BaF3-tel-EGFR (mouse BaF3 cells), 72 hours; read-out: Effects on cell proliferation (GI50)
T3 construct: expressed in transfected cells; host or cells: mouse BaF3 cells, retroviral MSCV-Puro; the other entry of the earlier key: ETV6 (P41212, Transcription factor ETV6)
Protocol: as §1, §2

[9] = test system: acute myeloid leukemia cell lines U937; assay: Cell proliferation (Cell Titer-Glo), U937; type: cell-based; conditions: Homo sapiens, U-937; U937, 72 hours; read-out: Effects on cell proliferation (GI50)
Protocol: as §1, §2

[10] = test system: human leukocyte leukemia cells HEL; assay: Cell proliferation (Cell Titer-Glo), HEL; type: cell-based; conditions: 72 hours, read-out: Effects on cell proliferation (GI50)
Protocol: as §1, §2

[11] = biological target: T4, TEL-LYN-BaF3 cells (stably expressing TEL-LYN activated kinase) (Homo sapiens, UniProt P07948); assay: Cell proliferation (Cell Titer-Glo), BaF3-tel-LYN; type: cell-based; conditions: BaF3-tel-LYN (mouse BaF3 cells), 72 hours; read-out: Effects on cell proliferation (GI50)
T4 construct: expressed in transfected cells; host or cells: mouse BaF3 cells, retroviral MSCV-Puro; the other entry of the earlier key: ETV6 (P41212, Transcription factor ETV6)
Protocol: as §1, §2

[12] = test system: acute promyelocytic leukemia cell line NB-4 (Lu+); assay: Cell proliferation (Cell Titer-Glo), NB4; type: cell-based; conditions: NB4, 72 hours; read-out: Effects on cell proliferation (GI50)
Protocol: as §1, §2

T1 sequence (Q06187 whole entry C481S): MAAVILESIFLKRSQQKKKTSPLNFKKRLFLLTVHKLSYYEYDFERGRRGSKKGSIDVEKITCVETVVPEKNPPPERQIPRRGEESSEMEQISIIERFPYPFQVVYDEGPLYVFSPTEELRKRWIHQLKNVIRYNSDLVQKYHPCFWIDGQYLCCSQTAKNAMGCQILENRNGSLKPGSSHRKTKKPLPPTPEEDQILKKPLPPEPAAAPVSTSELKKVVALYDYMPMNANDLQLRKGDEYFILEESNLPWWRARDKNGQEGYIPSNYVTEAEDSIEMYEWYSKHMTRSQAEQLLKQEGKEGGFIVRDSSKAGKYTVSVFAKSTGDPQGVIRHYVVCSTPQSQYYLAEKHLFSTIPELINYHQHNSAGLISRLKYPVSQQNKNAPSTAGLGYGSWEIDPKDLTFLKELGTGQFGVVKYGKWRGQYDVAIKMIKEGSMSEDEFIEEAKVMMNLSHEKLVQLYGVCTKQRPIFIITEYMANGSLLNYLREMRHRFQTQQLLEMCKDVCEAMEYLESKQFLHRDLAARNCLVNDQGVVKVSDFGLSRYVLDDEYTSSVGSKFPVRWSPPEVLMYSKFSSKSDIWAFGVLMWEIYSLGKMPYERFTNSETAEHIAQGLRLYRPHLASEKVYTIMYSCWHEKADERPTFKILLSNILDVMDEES
T2 sequence (P00533 712-979 C797S limits assumed): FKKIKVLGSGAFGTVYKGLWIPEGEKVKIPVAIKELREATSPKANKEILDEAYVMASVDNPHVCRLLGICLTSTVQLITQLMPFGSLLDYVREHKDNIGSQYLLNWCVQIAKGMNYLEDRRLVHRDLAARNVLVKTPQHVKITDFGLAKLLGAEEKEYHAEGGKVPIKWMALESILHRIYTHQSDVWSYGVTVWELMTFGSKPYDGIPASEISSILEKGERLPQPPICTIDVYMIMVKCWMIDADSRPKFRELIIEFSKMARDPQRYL
BTK WT, sequence (Q06187 whole entry): as the sequence (Q06187 whole entry C481S) above, with S481C counted along it
T4 sequence (P07948 247-501 limits assumed): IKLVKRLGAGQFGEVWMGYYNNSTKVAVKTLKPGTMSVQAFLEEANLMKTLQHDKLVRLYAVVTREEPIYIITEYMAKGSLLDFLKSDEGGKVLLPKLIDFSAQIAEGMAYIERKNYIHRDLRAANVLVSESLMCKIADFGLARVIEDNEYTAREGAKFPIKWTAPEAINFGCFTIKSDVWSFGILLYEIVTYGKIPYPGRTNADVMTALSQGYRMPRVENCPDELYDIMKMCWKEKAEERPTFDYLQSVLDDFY
T3 sequence (P00533 712-979 limits assumed): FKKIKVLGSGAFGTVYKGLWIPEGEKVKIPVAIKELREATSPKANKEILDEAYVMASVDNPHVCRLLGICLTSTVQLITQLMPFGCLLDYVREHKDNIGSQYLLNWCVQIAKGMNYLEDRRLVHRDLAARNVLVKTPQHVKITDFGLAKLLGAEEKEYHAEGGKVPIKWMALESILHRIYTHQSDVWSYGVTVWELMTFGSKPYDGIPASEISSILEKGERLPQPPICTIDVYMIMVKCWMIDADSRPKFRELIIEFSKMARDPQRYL

GI50 [1] [µM] | EC50 (BTK WT; read-out: EC50 against BTK WT protein) [µM] | GI50 [2] [µM] | EC50 (BTK C481S; read-out: EC50 against BTK C481S) [µM] | GI50 [3] [µM] | GI50 [4] [µM] | GI50 [5] [µM] | GI50 [6] [µM] | GI50 (mouse pro-B cells BaF3) [µM] | GI50 (leukemic cells K562) [µM] | GI50 [7] [µM] | GI50 [8] [µM] | GI50 [9] [µM] | GI50 [10] [µM] | GI50 [11] [µM] | GI50 [12] [µM] | inhibitory effects against BTK WT (BTK WT) | inhibitory effects against BTK C481S (BTK C481S) | Compound
5.5 | 0.0047 | 4.5 | 0.185 | 2.1 | 7.1 | 7.3 | 2.4 | 7.9 | 4.2 | 2.5 | 5.3 | 4.8 | 5.3 | 6.3 | 6.6 | – | – | C=CC(=O)Nc1cc(Nc2cc(-c3cccc(NC(=O)c4ccc(C(C)(C)C)cc4)c3C)cn(C)c2=O)ccc1C(=O)N1CCOCC1 [Compound 1, N-(3-(5-((3-acrylamide-4-(morpholin-4-carbonyl)phenyl)amino)-1-methyl-6-oxo-1,6-dihydropyridin-3-yl)-2-methylphenyl)-4-(tert-butyl)benzamide]
> 10 | – | > 10 | – | 4.8 | > 10 | > 10 | > 10 | 6.3 | > 10 | 1.8 | 7.6 | > 10 | > 10 | 6.8 | > 10 | no inhibitory effects | no inhibitory effects | CCC(=O)Nc1cc(Nc2cc(-c3cccc(NC(=O)c4ccc(C(C)(C)C)cc4)c3C)cn(C)c2=O)ccc1C(=O)N1CCOCC1 [Compound 6, N-(3-(5-((3-propanamide-4-(morpholin-4-carbonyl)phenyl)amino)-1-methyl-6-oxo-1,6-dihydropyridin-3-yl)-2-methylphenyl)-4-(tert-butyl)benzamide]
